Legend:
Hepatotoxicity [1] = tested on: Hepatotoxicity;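 for HepSE Combined Scores: combined hepatic side effect score as listed in the training data of the Drug Induced Liver Injury Prediction System (DILIps)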;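 for HepSE cholecystitis: Cholecystitis-related hepatic side effect score drawn from the DILIps (drug-induced liver injury prediction) training data set; call rule not given here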;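 for HepSE elevated liver function tests: hepatic side effect score for raised liver function tests, as recorded in the DILIps training set used for predicting drug-induced liver injury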; for HepSE hepatic failure: call rule not given here;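 for HepSE hepatic necrosis: score of hepatic side effects for hepatic necrosis, drawn from the training data of DILIps, a prediction system for drug-induced liver injury; call rule not given here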;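 for HepSE jaundice: Jaundice-related hepatic side-effect score drawn from the training data of the DILIps (drug-induced liver injury prediction system); call rule not given here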;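 for HepSE liver function tests abnormal: hepatic side effect score taken from the DILIps (drug-induced liver injury prediction system) training data, here covering abnormal liver function test findings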
Hepatotoxicity [2] = tested on: Hepatotoxicity; remark: listed apart in the source;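 for HepSE Combined Scores: combined hepatic side effect score as listed in the training data of the Drug Induced Liver Injury Prediction System (DILIps)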;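 for HepSE cholecystitis: Cholecystitis-related hepatic side effect score drawn from the DILIps (drug-induced liver injury prediction) training data set; call rule not given here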; for HepSE hepatic failure: call rule not given here;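 for HepSE hepatic necrosis: score of hepatic side effects for hepatic necrosis, drawn from the training data of DILIps, a prediction system for drug-induced liver injury; call rule not given here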;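 for HepSE jaundice: Jaundice-related hepatic side-effect score drawn from the training data of the DILIps (drug-induced liver injury prediction system); call rule not given here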;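 for HepSE liver function tests abnormal: hepatic side effect score taken from the DILIps (drug-induced liver injury prediction system) training data, here covering abnormal liver function test findings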
Hepatotoxicity [3] = tested on: Hepatotoxicity; remark: listed apart in the source;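 for HepSE Combined Scores: combined hepatic side effect score as listed in the training data of the Drug Induced Liver Injury Prediction System (DILIps)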;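 for HepSE cholecystitis: Cholecystitis-related hepatic side effect score drawn from the DILIps (drug-induced liver injury prediction) training data set; call rule not given here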; for HepSE hepatic failure: call rule not given here;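 for HepSE hepatic necrosis: score of hepatic side effects for hepatic necrosis, drawn from the training data of DILIps, a prediction system for drug-induced liver injury; call rule not given here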;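 for HepSE jaundice: Jaundice-related hepatic side-effect score drawn from the training data of the DILIps (drug-induced liver injury prediction system); call rule not given here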;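 for HepSE liver function tests abnormal: hepatic side effect score taken from the DILIps (drug-induced liver injury prediction system) training data, here covering abnormal liver function test findings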
Hepatotoxicity [4] = tested on: Hepatotoxicity; remark: listed apart in the source;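 for HepSE Combined Scores: combined hepatic side effect score as listed in the training data of the Drug Induced Liver Injury Prediction System (DILIps)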;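 for HepSE cholecystitis: Cholecystitis-related hepatic side effect score drawn from the DILIps (drug-induced liver injury prediction) training data set; call rule not given here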; for HepSE hepatic failure: call rule not given here;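 for HepSE hepatic necrosis: score of hepatic side effects for hepatic necrosis, drawn from the training data of DILIps, a prediction system for drug-induced liver injury; call rule not given here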;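 for HepSE jaundice: Jaundice-related hepatic side-effect score drawn from the training data of the DILIps (drug-induced liver injury prediction system); call rule not given here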;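 for HepSE liver function tests abnormal: hepatic side effect score taken from the DILIps (drug-induced liver injury prediction system) training data, here covering abnormal liver function test findings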
Hepatotoxicity [5] = tested on: Hepatotoxicity; remark: listed apart in the source; for HepSE hepatic failure: call rule not given here
Hepatotoxicity [6] = tested on: Hepatotoxicity; remark: listed apart in the source; for HepSE hepatic failure: call rule not given here
Hepatotoxicity [7] = tested on: Hepatotoxicity; remark: listed apart in the source
Hepatotoxicity [8] = tested on: Hepatotoxicity; remark: listed apart in the source
Hepatotoxicity [9] = tested on: Hepatotoxicity; remark: listed apart in the source
Hepatotoxicity [10] = tested on: Hepatotoxicity; remark: listed apart in the source
Hepatotoxicity [11] = tested on: Hepatotoxicity; remark: listed apart in the source
Hepatotoxicity [12] = tested on: Hepatotoxicity; remark: listed apart in the source
Hepatotoxicity [13] = tested on: Hepatotoxicity; remark: listed apart in the source
Hepatotoxicity [14] = tested on: Hepatotoxicity; remark: listed apart in the source

Row | SMILES | HepSE_cholecystitis (Hepatotoxicity [1]) | HepSE_hepatic failure (Hepatotoxicity [2]) | HepSE_hepatic necrosis (Hepatotoxicity [3]) | HepSE_Combined Scores (Hepatotoxicity [4]) | HepSE_liver function tests abnormal (Hepatotoxicity [5]) | HepSE_jaundice (Hepatotoxicity [6]) | HepSE_elevated liver function tests (Hepatotoxicity [7]) | HepSE_cirrhosis (Hepatotoxicity [8]) | HepSE_liver fatty (Hepatotoxicity [9]) | HepSE_liver disease (Hepatotoxicity [10]) | HepSE_hepatitis (Hepatotoxicity [11]) | HepSE_bilirubinemia (Hepatotoxicity [12]) | HepSE_cholelithiasis (Hepatotoxicity [13]) | HepSE_hepatomegaly (Hepatotoxicity [14]) | also measured
1 | CC1(C)O[C@@H]2[C@@H](CO[C@@]3(COS(N)(=O)=O)OC(C)(C)O[C@@H]23)O1 [TOPIRAMATE] | 0 | 1 | 0 | 2 | 0 | 0 | 0 | 0 | 0 | 0 | 1 | 0 | 0 | 0 | –
2 | CC[C@@]1(O)C(=O)OCc2c1cc1n(c2=O)Cc2cc3c(CN(C)C)c(O)ccc3nc2-1 [TOPOTECAN] | 0 | 0 | 0 | 1 | 0 | 0 | 0 | 0 | 0 | 0 | 0 | 1 | 0 | 0 | –
3 | CN(C)CCOc1ccc(/C(=C(/CCCl)c2ccccc2)c2ccccc2)cc1 [TOREMIFENE] | 0 | 0 | 0 | 2 | 1 | 1 | 0 | 0 | 0 | 0 | 0 | 0 | 0 | 0 | –
4 | Cc1cccc(Nc2ccncc2S(=O)(=O)NC(=O)NC(C)C)c1 [TORSEMIDE] | 0 | 1 | 0 | 2 | 0 | 0 | 0 | 1 | 0 | 0 | 0 | 0 | 0 | 0 | –
5 | COc1cccc(C2(O)CCCCC2CN(C)C)c1 (configuration not stated) [TRAMADOL] | 1 | 1 | 0 | 5 | 1 | 0 | 0 | 0 | 0 | 0 | 1 | 0 | 1 | 0 | –
6 | CCOC(=O)[C@H](CCc1ccccc1)N[C@@H](C)C(=O)N1[C@H](C(=O)O)C[C@H]2CCCC[C@@H]21 [TRANDOLAPRIL] | 0 | 0 | 0 | 2 | 1 | 0 | 0 | 0 | 0 | 0 | 1 | 0 | 0 | 0 | –
7 | N[C@@H]1C[C@H]1c1ccccc1.N[C@H]1C[C@@H]1c1ccccc1 [TRANYLCYPROMINE] | – | – | – | – | – | – | – | – | – | – | – | – | – | – | HepSE_cholecystitis (Hepatotoxicity [1]; Liver): 0; HepSE_hepatic failure (Hepatotoxicity [2]; Liver): 0; HepSE_hepatic necrosis (Hepatotoxicity [3]; Liver): 0; HepSE_Combined Scores (Hepatotoxicity [4]; Liver): 1; HepSE_liver function tests abnormal (Hepatotoxicity [5]; Liver): 0; HepSE_jaundice (Hepatotoxicity [6]; Liver): 0; HepSE_elevated liver function tests (Hepatotoxicity [7]; Liver): 0; HepSE_cirrhosis (Hepatotoxicity [8]; Liver): 0; HepSE_liver fatty (Hepatotoxicity [9]; Liver): 0; HepSE_liver disease (Hepatotoxicity [10]; Liver): 0; HepSE_hepatitis (Hepatotoxicity [11]; Liver): 1; HepSE_bilirubinemia (Hepatotoxicity [12]; Liver): 0; HepSE_cholelithiasis (Hepatotoxicity [13]; Liver): 0; HepSE_hepatomegaly (Hepatotoxicity [14]; Liver): 0
8 | CC(C)OC(=O)CCC/C=C\C[C@@H]1[C@@H](/C=C/[C@@H](O)COc2cccc(C(F)(F)F)c2)[C@H](O)C[C@@H]1O [TRAVOPROST] | 0 | 0 | 0 | 0 | 0 | 0 | 0 | 0 | 0 | 0 | 0 | 0 | 0 | 0 | –
9 | O=c1n(CCCN2CCN(c3cccc(Cl)c3)CC2)nc2ccccn12 [TRAZODONE] | 0 | 0 | 0 | 2 | 0 | 1 | 0 | 0 | 0 | 0 | 0 | 1 | 0 | 0 | –
10 | CCCCC[C@H](O)CC[C@@H]1[C@H]2Cc3cccc(OCC(=O)O)c3C[C@H]2C[C@H]1O [TREPROSTINIL] | 0 | 0 | 0 | 0 | 0 | 0 | 0 | 0 | 0 | 0 | 0 | 0 | 0 | 0 | –
11 | CC1=C(/C=C/C(C)=C/C=C/C(C)=C/C(=O)O)C(C)(C)CCC1 [TRETINOIN] | 0 | 0 | 0 | 2 | 0 | 0 | 0 | 0 | 0 | 1 | 1 | 0 | 0 | 0 | –
12 | C[C@]12C=CC(=O)C=C1CC[C@H]1[C@@H]3C[C@@H](O)[C@](O)(C(=O)CO)[C@@]3(C)C[C@H](O)[C@@]12F [TRIAMCINOLONE] | 0 | 0 | 0 | 1 | 0 | 0 | 0 | 0 | 0 | 0 | 0 | 0 | 0 | 1 | –
13 | Cc1nnc2n1-c1ccc(Cl)cc1C(c1ccccc1Cl)=NC2 [TRIAZOLAM] | 0 | 1 | 0 | 2 | 0 | 1 | 0 | 0 | 0 | 0 | 0 | 0 | 0 | 0 | –

Source: ChEMBL document CHEMBL1909294, “Translating clinical findings into knowledge in drug safety evaluation--drug induced liver injury prediction system (DILIps)” (PLoS Comput Biol, 2011)
